Key:
[1] = system: intracellular glucose levels in hESC-SCs; experiment: Intracellular glucose measurement in hESC-SCs; format: cell-based, human; details: high glucose
Excerpt: (§1) High glucose, low glucose and drug treated SCs and sensory neurons were subjected to biochemical assays for Sorbitol (abcam, ab118968), glucose (abcam, ab65333), Pyruvate (abcam, ab65342) and 2DG uptake (abcam, ab136955) measurements according to manufacturer's instructions. Data was normalizing according to cell numbers and averaged over 3-6 biological replicates.

[2] = system: glucose uptake in hESC-SCs; experiment: Glucose (2DG) uptake in hESC-SCs; format: cell-based, human; details: high glucose
Excerpt: as §1

[3] = system: high glucose treated hESC-SCs; experiment: High content screening for drugs reversing glucose-mediated SC cytotoxicity (Prestwick library); format: cell-based, human; details: 30 mM glucose, compounds at 1 μM, 72 hours
Experimental: The chemical compound screening was performed using the Prestwick Chemical Library®. RFP-labeled hESC-SCs were plated in 384 well plates (1,000/well) and treated with 30 mM glucose immediately before addition of the compounds. The compounds were added at 1 μM concentration. 72 hours later, the plates were treated with DAPI for ten minutes, washed twice and fixed for total plate imaging. The number of viable cells was quantified for each well by counting the number of DAPI negative, RFP positive cells. The percentage of dead cells were calculated for each well by dividing the number of DAPI positive cells by total RFP positive cells.
Data are presented as mean±SEM and were derived from at least 3 independent experiments. Statistical analysis was performed using the Student t-test (comparing 2 groups) or ANOVA with Dunnett test (comparing multiple groups against control). Distribution of the raw data approximated normal distribution (Kolmogorov Smirnov normality test) for data with sufficient number of replicates to test for normality. Survival analysis was performed using log rank (Mantel-Cox) test. Z-scores for primary hits were calculated as Z=(x−μ)/σ. X is the migration score value and is 3 for all hit compounds. μ is the mean migration score value and a is the standard deviation for all compounds and DMSO controls

[4] = system: pyruvate levels in hESC-SCs; experiment: Pyruvate measurement in hESC-SCs; format: cell-based, human; details: high glucose
Excerpt: as §1

[5] = system: sorbitol levels in hESC-SCs; experiment: Sorbitol measurement in hESC-SCs; format: cell-based, human; details: high glucose treated hESC-SCs
Experimental: High glucose, low glucose and drug treated SCs and sensory neurons were subjected to biochemical assays for Sorbitol (abcam, ab118968), glucose (abcam, ab65333), Pyruvate (abcam, ab65342) and 2DG uptake (abcam, ab136955) measurements according to manufacturer's instructions. Data was normalizing according to cell numbers and averaged over 3-6 biological replicates. For validation of the selected hit compound (Bupropion HCL, Sigma, B102), the cells were treated with various concentrations of the compound for dose response analysis. The highest non-toxic dose (0.7 μM-based on optimal sorbitol reduction and viability) was used for follow-up experiments.

[6] = system: STZ-treated C57BL6 mice; experiment: TUNEL staining of sciatic nerves of STZ-treated mice; format: in vivo; details: oral in chow ~300 mg/kg daily
Experimental: (§2) All procedures were performed following NIH guidelines, and were approved by the local Institutional Animal Care and Use Committee (IACUC). 3-8 weeks old male C57BL6 mice were treated with one dose IP injection of streptozotocin (180 mg/kg, sigma, 85882) to induce pancreatic beta cell death. Blood glucose levels was measured using a standard glucometer (Freestyle Lite) in weekly intervals starting at one week post-treatment, by drawing a drop of blood from tail tip. BP treatment was initiated one week post-streptozotocin treatment. BP was mixed with standard chow at 1.63 mg/gram of chow to be administered orally at ˜300 mg/kg daily. The dose was calculated on the basis of average daily food intake (5.5 gram/day) and initial body weight (30 grams).

[7] = system: STZ-treated C57BL6 mice; experiment: Blood glucose in STZ-treated diabetic mice; format: in vivo; details: oral in chow ~300 mg/kg daily
Experimental: as §2

[8] = system: high glucose treated hESC-SCs; experiment: Dose response validation, SC viability / cell death (LDH); format: cell-based, human
Experimental: To monitor the viability of SCs, cells were assayed for LDH activity using CytoTox 96 cytotoxicity assay kit (Promega, G1780). Briefly, the cells were plated in 96 well plates at 30,000 cells/cm^2. The supernatant and the cell lysate is harvested 24 hours later and assayed for LDH activity using a plate reader (490 nm absorbance). Viability was calculated by dividing the LDH signal of the lysate by total LDH signal (from lysate plus supernatant). The cells were cultured in Schwann cell medium (Sciencell, 1701) on PO/LM/FN coated dishes during the assay. For validation of the selected hit compound (Bupropion HCL, Sigma, B102), the cells were treated with various concentrations of the compound for dose response analysis. The highest non-toxic dose (0.7 μM-based on optimal sorbitol reduction and viability) was used for follow-up experiments.

[9] = system: STZ-treated C57BL6 mice; experiment: Mouse thermal sensitivity (hot plate) test in STZ-treated mice; format: in vivo; details: seven and eight weeks post STZ, oral in chow ~300 mg/kg daily
Experimental: as §2, with “grams). Thermal nociception was assessed using the hot plate test. The hot plate (Ugo Basile 35100) consisted of a metal surface (55° C.) with a transparent plexiglass cylinder to contain the mouse. […] Typical baseline latencies are 5-10 seconds, with maximal latencies of 30 seconds.” for “grams).”

[10] = system: patients suffering from neuropathic pain; details: cited from earlier work
[11] = system: STZ-treated C57BL6 mice; experiment: Transmission electron microscopy of myelin in sciatic nerves of STZ-treated mice; format: in vivo; details: oral in chow ~300 mg/kg daily
Experimental: as §2

[12] = system: rodent GSK3β homologs; details: cited from earlier work

Row | Compound | intracellular glucose levels [1] | glucose uptake [2] | enhancing the viability of high glucose treated hESC-SCs (primary screen) [3] | levels of pyruvate [4] | IC50 ([5]; Homo sapiens, read-out: IC50 (dose-response in rescuing SC viability and in decreasing sorbitol levels)) | highest non-toxic dose (based on optimal sorbitol reduction and viability) [5] | dose of maximum effect ([5]; dose used for all further studies) | TUNEL+ apoptotic cells in the sciatic nerves [6] | blood glucose levels [7] | levels inducing gradual dose-dependent toxicity ([8]; hESC-SCs) | rescuing SC viability ([8]; high glucose treated hESC-SCs, various concentrations) | response time to thermal stimulation (latency of hind paw withdrawal) [9] | benefit in the treatment of neuropathic pain [10] | percentage of damaged myelin in the sciatic nerves [11] | IC50 values against rodent GSK3β homologs [12]
1 | CC(NC(C)(C)C)C(=O)c1cccc(Cl)c1.Cl (stereo not drawn) [BP, 2-(tert-butylamino)-1-(3-chlorophenyl)propan-1-one;hydrochloride] | reduced | without affecting | most potent compound | increased | 0.263 µM | 0.7 µM | 0.7 | significantly fewer apoptotic cells | does not affect glucose levels | above 2 μM | dose-response | significantly improved response time | some benefit | significantly reduced | 
2 | Cc1c[nH]c(-c2cnc(NCCNc3ccc(C#N)cn3)nc2-c2ccc(Cl)cc2Cl)n1 [CHIR99021, 6-(2-(4-(2,4-dichlorophenyl)-5-(4-methyl-1H-imidazol-2-yl)pyrimidin-2-ylamino)ethylamino)nicotinonitrile] |  |  |  |  |  |  |  |  |  |  |  |  |  |  | nanomolar

Source: patent publication US20190331666A1, “METHODS FOR DRUG DISCOVERY USING STEM CELL-DERIVED SCHWANN CELLS” (MEMORIAL SLOAN-KETTERING CANCER CENTER, priority 2016, published 2019)
